Patent US12410155B2, “Salt form and crystal form of tetrahydrocyclohepta indazole compound” (Zhejiang Yangli Pharmaceutical Technology Co., Ltd., priority 2021, dated 2025)

System: CAMA-1 cells
Experiment: CAMA-1 cell proliferation inhibition assay (CTG)
Type: cell-based
Conditions: Homo sapiens, 1 nM estradiol
Experimental: (4) MCF-7, T-47D, and CAMA-1 Cell Proliferation Inhibition Assay
CAMA-1: EMEM (without phenol red) containing 10% charcoal-stripped serum (500 mL culture medium containing 440 mL EMEM, 50 mL charcoal-stripped serum, 5 mL NEAA, 5 mL 100 mM sodium pyruvate).
The inhibitory effect of the test compound of formula (I) on the proliferation of MCF-7, CAMA-1, and T-47D cells was analyzed. For MCF-7 cells, ten concentration gradients ranging from 100 nM to 0.0003815 nM were tested, with three replicates for each concentration. For CAMA-1 cells, nine concentration gradients ranging from 100 nM to 0.001526 nM were tested, also with three replicates for each concentration. For T-47D cells, nine concentration gradients ranging from 2 μM to 0.00512 nM were tested, with three replicates for each concentration. Each experiment was conducted twice independently.
The CAMA-1 cells were treated with starvation medium for three days, followed by trypsin digestion, centrifugation, resuspension, and counting. Cell suspensions were prepared using the corresponding culture medium, and 80 μL of the suspension was added to each well of a 96-well plate. The plate was then incubated at 37° C. in a cell incubator with 5% CO2. The test compound of formula (I) was dissolved in DMSO to an initial concentration of 20 μM and subjected to a 4-fold serial dilution to achieve nine different concentrations. After overnight incubation, the diluted compound was further diluted with the corresponding cell culture medium. The resulting mixture was transferred to the respective wells of the cell plate, starting with a final concentration of 100 nM, followed by a 4-fold serial dilution to achieve nine concentrations. The positive control wells contained 2 μM fulvestrant, and 1 nM estradiol was added to the entire plate. […]
After incubation for the specified time, the cell culture plate was removed, and the CTG reagent was added. […] The readings were taken using the Envision multi-label analyzer. […]

## FCCCN1CC[C@H](Nc2cnc(C3=C(CC(F)(F)F)CCCc4c3ccc3[nH]nc(F)c43)cn2)C1 [Compound of formula (I)]
CAMA-1, First experiment
  IC50: 1.19 nM
CAMA-1, Mean ± SD
  IC50: 1.29 ± 0.1 nM
CAMA-1, Second experiment
  IC50: 1.39 nM
